Where no end group is shown, it is not given here.

Results on four substances are retold here after article PMC6899342 (PeerJ, 2019).

This assay concerns the target T1, PCV2 Cap protein (Porcine circovirus 2, UniProt O56129).
T1 construct: made in house; host or cells: E. coli BL21 (pET28a-Cap)
In words: biochemical. It counts as binding, porcine circovirus type II. To be noted: for kon: pH 7.4, read-out: ka. How it is done:
The equilibrium binding constant (KD) of peptides was determined using an Open SPR instrument (Nicoya, Canada). First, purified Cap protein was covalently immobilized on a carboxyl Au colloidal nanoparticles chip. […] Then, all peptides were respectively dissolved in PBS at predetermined concentrations and injected to detect the resonance signal changes. In each cycle, 300 µL of peptide solution was injected into the flow cell of the Cap chip for 5 min. Finally, the data were assessed to determine the association constant (ka, 1/Ms), the dissociation constant (kd, 1/s), the equilibrium binding constant (KD, M), and KD = kd/ka via Trace Drawer 1.7 (Nicoya, Canada).
All the steps were performed according to manufacturer’s instructions. First, the activation of carboxyl chip: the chip is activated by the EDC/NHS reagent in the amine coupling kit. […] The last step is to block the chip with blocking buffer. In every step, The 300 μL sample was flowed through the chip for 5 min at a constant flow rate of 20 μL/min.
Dissociation constant Kd represents the ratio of AB (ie, AB) dissociated in unit time to the initial AB before dissociation, which represents the speed of the dissociation reaction.Equilibrium dissociation constant KD =kd/ka, KD unit is M (mol/L)
1:1 binding interaction model represents the binding mode of ligand and target according to 1:1. The1:1 binding interaction model is a differential equation:
dY/dt = (k a * c - k d )* Y

T1 sequence (O56129 whole entry): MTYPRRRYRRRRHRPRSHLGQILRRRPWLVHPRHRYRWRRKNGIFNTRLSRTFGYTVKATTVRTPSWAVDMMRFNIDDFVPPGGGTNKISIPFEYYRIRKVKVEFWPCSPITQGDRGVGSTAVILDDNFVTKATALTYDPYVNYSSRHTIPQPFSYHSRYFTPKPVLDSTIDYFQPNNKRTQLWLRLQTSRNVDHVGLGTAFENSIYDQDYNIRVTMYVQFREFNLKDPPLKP

Broadly, the Kd is the constant that tells how readily two partners part at equilibrium. For KWWQSWEW [Peptide L13], the dissociation constant (Kd) is 9.97 µM and the kon is 335 M⁻¹ s⁻¹.

As to RKHKRWK [Peptide L7], the Kd is 1.06 µM and the kon was found to be 856 M⁻¹ s⁻¹.

For WQGMMKEE [Peptide L4], the affinity, expressed as Kd, was 1.23 µM and the kon is 1920 M⁻¹ s⁻¹.

For WQSWEWTG [Peptide L9], binding was characterised by a dissociation constant (Kd) of 6.71 µM and the kon amounted to 855 M⁻¹ s⁻¹.
